Test results from ChEMBL document CHEMBL2010725, “Synthesis and Cardiac Imaging of (18)F-Ligands Selective for β1-Adrenoreceptors” (ACS Med Chem Lett, 2011).

Key:
[1] = Selectivity ratio of IC50 for adrenergic beta2 receptor to IC50 for adrenergic beta1 receptor
[2] = molecular target: Beta-1 adrenergic receptor (Homo sapiens, UniProt P08588); assay: Displacement of [3H](-)-CGP-12177 from adrenergic beta1 receptor by cell based assay
[3] = system: Blood; assay: Biodistribution in Sprague-Dawley rat blood at 15 uCi after 30 mins by gamma counting; type: ADME, organism-based; conditions: in vivo, 0.5 h
[4] = system: Spleen; assay: Biodistribution in Sprague-Dawley rat spleen at 15 uCi after 30 mins by gamma counting; type: ADME, organism-based; conditions: in vivo, 0.5 h
[5] = system: Liver; assay: Drug uptake in Sprague-Dawley rat liver at 1 mCi after 60 mins by microPET analysis; type: ADME, tissue-based; conditions: in vivo, 1 h
[6] = system: Lung; assay: Biodistribution in Sprague-Dawley rat lung at 15 uCi after 30 mins by gamma counting; type: ADME, organism-based; conditions: in vivo, 0.5 h
[7] = system: Liver; assay: Biodistribution in Sprague-Dawley rat liver at 15 uCi after 30 mins by gamma counting; type: ADME, organism-based; conditions: in vivo, 0.5 h
[8] = system: Liver; assay: Drug uptake in Sprague-Dawley rat liver at 1 mCi after 30 mins by microPET analysis; type: ADME, tissue-based; conditions: in vivo, 0.5 h
[9] = Ratio of drug level in lung to heart in Sprague-Dawley rat at 15 uCi after 30 mins by gamma counting; conditions: in vivo, 0.5 h
[10] = system: Heart; assay: Biodistribution in Sprague-Dawley rat heart at 15 uCi after 30 mins by gamma counting; type: ADME, organism-based; conditions: in vivo, 0.5 h
[11] = system: Kidney; assay: Biodistribution in Sprague-Dawley rat kidney at 15 uCi after 30 mins by gamma counting; type: ADME, organism-based; conditions: in vivo, 0.5 h
[12] = system: Muscle tissue; assay: Biodistribution in Sprague-Dawley rat muscle at 15 uCi after 30 mins by gamma counting; type: ADME, organism-based; conditions: in vivo, 0.5 h
[13] = Drug uptake in Sprague-Dawley rat myocardium at 1 mCi after 60 mins by microPET analysis; type: ADME, tissue-based; conditions: in vivo, 1 h
[14] = Drug uptake in Sprague-Dawley rat myocardium at 1 mCi after 30 mins by microPET analysis; type: ADME, tissue-based; conditions: in vivo, 0.5 h
[15] = system: Femur; assay: Biodistribution in Sprague-Dawley rat femur at 15 uCi after 30 mins by gamma counting; type: ADME, organism-based; conditions: in vivo, 0.5 h
[16] = Drug uptake in Sprague-Dawley rat myocardium after <5 mins by microPET analysis; type: ADME, tissue-based; conditions: in vivo
[17] = system: Lung; assay: Drug uptake in Sprague-Dawley rat lung after <5 mins by microPET analysis; type: ADME, tissue-based; conditions: in vivo
[18] = system: Rattus norvegicus; assay: Drug metabolism in rat assessed as progressive loss of parent compound at 1 mCi/kg, iv after 2 mins by HPLC analysis; type: ADME, organism-based; conditions: in vivo
[19] = system: Liver; assay: Drug uptake in Sprague-Dawley rat liver after <5 mins by microPET analysis; type: ADME; conditions: in vivo
[20] = Drug excretion in rat urine assessed as parent compound at 1 mCi/kg, iv after 30 mins by HPLC analysis; type: ADME, organism-based; conditions: read-out: Drug excretion
[21] = system: Rattus norvegicus; assay: Drug metabolism in rat assessed as progressive loss of parent compound at 1 mCi/kg, iv after 30 mins by HPLC analysis; type: ADME, organism-based; conditions: in vivo, 0.5 h

Sequence of Beta-1 adrenergic receptor (P08588 whole entry): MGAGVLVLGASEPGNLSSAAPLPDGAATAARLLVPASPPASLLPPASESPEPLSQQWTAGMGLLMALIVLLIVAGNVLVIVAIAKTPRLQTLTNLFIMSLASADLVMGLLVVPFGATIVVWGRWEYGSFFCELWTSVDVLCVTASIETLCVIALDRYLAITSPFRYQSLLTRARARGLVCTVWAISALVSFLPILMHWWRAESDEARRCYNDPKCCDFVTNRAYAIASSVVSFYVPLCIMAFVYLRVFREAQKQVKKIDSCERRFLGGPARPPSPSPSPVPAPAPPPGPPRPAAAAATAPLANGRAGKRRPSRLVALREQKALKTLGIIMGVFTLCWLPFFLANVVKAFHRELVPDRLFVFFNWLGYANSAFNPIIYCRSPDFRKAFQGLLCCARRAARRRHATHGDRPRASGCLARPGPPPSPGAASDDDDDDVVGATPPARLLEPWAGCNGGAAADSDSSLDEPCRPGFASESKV

Ratio IC50 [1] | IC50 [2] [nM] | Structure (SMILES) | further results
69 | 0.2 | N#Cc1ccccc1OC[C@@H](O)CNCCNC(=O)Nc1ccccc1F | –
723 | 0.05 | N#Cc1ccccc1OC[C@@H](O)CNCCNC(=O)Nc1ccc(I)nc1 | –
150 | 0.1 | N#Cc1ccccc1OC[C@@H](O)CNCCNC(=O)Nc1ccc(F)cc1 | –
65 | 0.25 | N#Cc1ccccc1OC[C@@H](O)CNCCNC(=O)Nc1ccc(OCCCF)cc1 | –
448 | 0.08 | N#Cc1ccccc1OC[C@@H](O)CNCCNC(=O)Nc1ccc(OCCF)cc1 | –
> 1000 | 0.05 | N#Cc1ccccc1OC[C@@H](O)CNCCNC(=O)Nc1ccc(Br)nc1 | –
145 | 0.11 | COc1ccc(NC(=O)NCCNC[C@H](O)COc2ccccc2C#N)cc1 | –
32 | 2 | CCOc1ccc(NC(=O)NCCNC[C@H](O)COc2cccc(F)c2C#N)cc1 | –
345 | 0.3 | N#Cc1ccccc1OC[C@@H](O)CNCCNC(=O)Nc1ccc(F)nc1 | –
13 | 1.5 | CC(CF)Nc1ccc(NC(=O)NCCNC[C@H](O)COc2ccccc2C#N)cc1 (stereo partly drawn) | –
511 | 1 | N#Cc1ccccc1OC[C@@H](O)CNCCNC(=O)Nc1ccc(C(=O)O)c(F)c1 | –
70 | 2 | N#Cc1ccc(F)cc1OC[C@@H](O)CNCCNC(=O)Nc1ccc(C(=O)O)cc1 | –
164 | 21 | N#Cc1c(F)cccc1OC[C@@H](O)CNCCNC(=O)Nc1ccc(C(=O)O)cc1 | –

Further lines, the compound ahead of its results:

Structure (SMILES) | Ratio IC50 [1] | IC50 [2] [nM] | further results
N#Cc1ccccc1OC[C@@H](O)CNCCNC(=O)Cc1ccc(F)cc1 | 6 | 0.14 | –
N#Cc1ccccc1OC[C@@H](O)CNCCNC(=O)NC1CCN(CCF)CC1 | 0.05 | > 100 | –
N#Cc1ccccc1OC[C@@H](O)CNCCNC(=O)Nc1nnn(CCF)n1 | 10 | 10 | –
N#Cc1ccccc1OC[C@@H](O)CNCCNS(=O)(=O)c1ccccc1F | 0.1 | 5 | –
N#Cc1ccccc1OC[C@@H](O)CNCCCC(=O)Nc1ccc(F)nc1 | 30 | 3 | –
N#Cc1ccccc1OC[C@@H](O)CNCCNC(=O)Nc1ccc(OCC[18F])cc1 | – | – | Drug uptake [3]: 0.18 % ID/g; Drug uptake [4]: 0.37 % ID/g; Drug uptake [5]: Not Active; Drug uptake [6]: 0.97 % ID/g; Drug uptake [7]: 1.14 % ID/g; Drug uptake [8]: Active; Ratio [9]: 2; Drug uptake [10]: 0.48 % ID/g; Drug uptake [11]: 1.26 % ID/g; Drug uptake [12]: 0.08 % ID/g; Drug uptake [13]: Not Active; Drug uptake [14]: Active; Drug uptake [15]: 0.27 % ID/g
N#Cc1ccccc1OC[C@@H](O)CNCCNC(=O)c1ccc(F)nc1 | 4 | 10 | –
N#Cc1ccccc1OC[C@@H](O)CNCCNC(=O)N1CCOCC1 | 4 | 20 | –
N#Cc1ccccc1OC[C@@H](O)CNCCNC(=O)Nc1cccc(OCC[18F])c1 | – | – | Drug uptake [3]: 0.14 % ID/g; Drug uptake [4]: 0.52 % ID/g; Drug uptake [5]: Not Active; Drug uptake [16]: Active; Drug uptake [6]: 0.79 % ID/g; Drug uptake [17]: Active; Drug metabolism [18]: 83%; Drug uptake [19]: Active; Drug uptake [7]: 1.14 % ID/g; dose excreted at 0.5 h [20]: 76%; Drug uptake [8]: Active; Ratio [9]: 1.27; Drug uptake [10]: 0.62 % ID/g; Drug uptake [11]: 2.01 % ID/g; Drug uptake [12]: 0.1 % ID/g; Drug uptake [13]: Not Active; Drug metabolism [21]: 44%; Drug uptake [14]: Active; Drug uptake [15]: 0.16 % ID/g
N#Cc1ccccc1OC[C@@H](O)CNCCNC(=O)Nc1ccc(OCCF)nc1 | 50 | 0.1 | –
N#Cc1ccccc1OC[C@@H](O)CNCCNC(=O)Nc1cccc(OCCF)c1 | 265 | 0.04 | –
N#Cc1ccccc1OC[C@@H](O)CNCCNC(=O)Nc1ccc(OCCC[18F])cc1 | – | – | Drug uptake [3]: 0.21 % ID/g; Drug uptake [4]: 0.4 % ID/g; Drug uptake [5]: Not Active; Drug uptake [6]: 0.63 % ID/g; Drug uptake [7]: 1.03 % ID/g; Drug uptake [8]: Active; Ratio [9]: 1.5; Drug uptake [10]: 0.42 % ID/g; Drug uptake [11]: 1.38 % ID/g; Drug uptake [12]: 0.09 % ID/g; Drug uptake [13]: Not Active; Drug uptake [14]: Active; Drug uptake [15]: 0.63 % ID/g
N#Cc1ccccc1OC[C@@H](O)CNCCNC(=O)Nc1nccs1 | 8 | 26 | –
N#Cc1ccccc1OC[C@@H](O)CNCCNC(=O)Nc1cnc(Br)cn1 | 163 | 0.35 | –
